Consider nine compounds from ChEMBL document CHEMBL1201862, “PubChem BioAssay data set” (2004).

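Interpolation was linear, between the two tested concentrations surrounding the appropriate level; five concentrations were tested over 48 hours in 96-well plates. The concentration for 50% growth inhibition is given as GI50.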 Activity calls are given as the source filed them. No stated cut-off is given here; in the data, active = GI50 up to about 1.1 µM and inactive = higher. A value given as a limit tells only on which side of the number the result lay.

Some test systems named below: ACHN; CAKI-1; CCRF-CEM; IGROV-1; MDA-MB-231; MDA-MB-435; Malme-3M; OVCAR-5; PC-3; RPMI-8226; RXF 393; SK-MEL-28; SK-MEL-2; SK-OV-3; SN12C; SNB-19; TK-10; MCF7; SR.
What all share (assay): NCI tumour cell line growth inhibition, 48 h

Take `CCOC(=O)c1ccc(-c2cc(C)no2)[nH]1`: the GI50 in the assay on ACHN is > 100 µM (inactive); with CAKI-1, 28.8 µM (inactive); in the assay with CCRF-CEM it was > 100 µM (inactive); in the assay on IGROV-1 it was > 100 µM (inactive); in the assay on MDA-MB-231, 76 µM (inactive); in the assay on MDA-MB-435 it was 11.4 µM (inactive). The GI50 in the assay with Malme-3M is > 100 µM (inactive); in the assay on OVCAR-5 it was > 100 µM (inactive); in the assay with PC-3, 83.8 µM (inactive); with RPMI-8226 it was > 100 µM (inactive); with RXF 393 it was > 100 µM (inactive); with SK-MEL-28, > 100 µM (inactive). In addition, the GI50 in the assay with SK-MEL-2 is > 100 µM (inactive); with SK-OV-3, > 100 µM (inactive); with SN12C, 33 µM (inactive); with SNB-19 it was > 100 µM (inactive); in the assay on TK-10, > 100 µM (inactive).

For `CCN(CC)c1ccc2cc(-c3nnc(-c4ccccc4)[nH]3)c(=O)oc2c1`, the GI50 with ACHN was 36.7 µM (inactive); in the assay with CAKI-1 it was 26.9 µM (inactive); with CCRF-CEM it was 39.7 µM (inactive); in the assay on IGROV-1, 17.7 µM (inactive); in the assay with MCF7, > 100 µM (inactive); in the assay on MDA-MB-435, 41.9 µM (inactive). The GI50 is 83 µM (inactive) in the assay with Malme-3M; 28.2 µM (inactive) in the assay with OVCAR-5; 14.9 µM (inactive) in the assay on PC-3; 54.2 µM (inactive) in the assay on RPMI-8226; > 100 µM (inactive) in the assay with SK-MEL-28; 33 µM (inactive) in the assay on SK-MEL-2. The GI50 is 19.8 µM (inactive) with SK-OV-3, 12.2 µM (inactive) with SNB-19 and 70.5 µM (inactive) in the assay with SR.

Regarding `c1ccc2c(c1)nc1ccccn12`, the GI50 in the assay on ACHN, in the assay on CCRF-CEM, in the assay with IGROV-1, in the assay with MCF7, in the assay with MDA-MB-435 and in the assay on Malme-3M was > 100 µM (inactive) in each case. For the same compound, the GI50 in the assay with OVCAR-5, in the assay with PC-3, with RPMI-8226, with RXF 393, with SK-MEL-28 and in the assay on SK-OV-3 was > 100 µM (inactive) throughout. Further, the GI50 with SN12C, in the assay on SNB-19, in the assay on SR and in the assay with TK-10 was > 100 µM (inactive) throughout.

For the compound `Cn1c(C(C#N)c2cc(Cl)ncn2)nc2ccccc21` (centres undefined), the GI50 in the assay on ACHN, in the assay with CAKI-1, in the assay with IGROV-1, in the assay on MDA-MB-231, in the assay with MDA-MB-435 and in the assay on Malme-3M was > 100 µM (inactive) in each case. The GI50 with OVCAR-5, with RPMI-8226, in the assay on RXF 393, in the assay on SK-MEL-28, in the assay on SK-OV-3 and in the assay with SN12C was > 100 µM (inactive) in each case. Moreover, the GI50 in the assay with SNB-19 and in the assay on TK-10 was > 100 µM (inactive) in each case.

Regarding `O=P(O)(O)c1ccc(-c2ccc(I)cc2)cc1`, the GI50 with ACHN, in the assay on CAKI-1, with CCRF-CEM, with IGROV-1, in the assay with MCF7 and in the assay on MDA-MB-231 was > 100 µM (inactive) each time. Also, the GI50 with Malme-3M is > 100 µM (inactive); with OVCAR-5 it was > 100 µM (inactive); in the assay with PC-3, > 100 µM (inactive); with RPMI-8226, > 100 µM (inactive); in the assay with RXF 393 it was 13.5 µM (inactive); with SK-MEL-28, > 100 µM (inactive). Besides, the GI50 with SK-MEL-2, with SK-OV-3, with SN12C, in the assay on SNB-19, with SR and in the assay with TK-10 was > 100 µM (inactive) each time.

Regarding `COC(=O)C(Nc1ccc(OC)cc1)c1ccccc1` (centres undefined), the GI50 in the assay on ACHN, in the assay with CAKI-1, in the assay with CCRF-CEM, in the assay with IGROV-1, in the assay on MCF7 and in the assay with MDA-MB-435 was > 100 µM (inactive) throughout. The GI50 is > 100 µM (inactive) with OVCAR-5; > 100 µM (inactive) with PC-3; 83.9 µM (inactive) in the assay on RPMI-8226; > 100 µM (inactive) in the assay on SK-MEL-28; > 100 µM (inactive) in the assay on SK-MEL-2; > 100 µM (inactive) in the assay on SN12C. Also, the GI50 with SNB-19, in the assay on SR and in the assay on TK-10 was > 100 µM (inactive) in each case.

In the case of `Cc1cc(C[C@H]2O[C@@H]3OC(C)(C)O[C@@H]3[C@H]3OC(C)(C)O[C@H]32)c2ccccc2n1`, the GI50 is > 100 µM (inactive) in the assay with ACHN; 56.6 µM (inactive) with CAKI-1; 42.1 µM (inactive) in the assay with CCRF-CEM; 49.8 µM (inactive) with IGROV-1; > 100 µM (inactive) with MDA-MB-435; 64.9 µM (inactive) with Malme-3M. Also, the GI50 with OVCAR-5 is > 100 µM (inactive); in the assay on PC-3 it was 40.1 µM (inactive); with RPMI-8226, 27.1 µM (inactive); with RXF 393, 39.1 µM (inactive); in the assay with SK-MEL-28 it was > 100 µM (inactive); in the assay on SK-MEL-2 it was 36 µM (inactive). Moreover, the GI50 in the assay with SK-OV-3 is > 100 µM (inactive); in the assay on SN12C, > 100 µM (inactive); in the assay on SNB-19, > 100 µM (inactive); in the assay on SR, 34.8 µM (inactive); in the assay with TK-10, > 100 µM (inactive).

For the compound `O=C(Nn1c(-c2ccccc2)nc2ccccc2c1=O)c1ccccn1`, the GI50 with ACHN was > 100 µM (inactive); with CCRF-CEM, 41.5 µM (inactive); in the assay with IGROV-1, > 100 µM (inactive); in the assay with MDA-MB-231 it was > 100 µM (inactive); in the assay on MDA-MB-435, > 100 µM (inactive); in the assay on Malme-3M, > 100 µM (inactive). Moreover, the GI50 was > 100 µM (inactive) with PC-3; > 100 µM (inactive) in the assay with RPMI-8226; 45.3 µM (inactive) in the assay on RXF 393; > 100 µM (inactive) with SK-MEL-28; > 100 µM (inactive) in the assay with SK-OV-3; > 100 µM (inactive) in the assay on SN12C. The GI50 in the assay on SNB-19, with SR and in the assay with TK-10 was > 100 µM (inactive) in each case.

With `O=C(NNC(=O)c1ccccc1O)c1ccccc1O`, the GI50 with ACHN was 0.0507 µM (active); in the assay on CAKI-1, < 0.0237 µM (active); with CCRF-CEM it was 0.0173 µM (active); with IGROV-1, < 0.0255 µM (active); in the assay with MCF7, 0.43 µM (active); with MDA-MB-231, 5.24 µM (inactive). Moreover, the GI50 was < 0.01 µM (active) in the assay on MDA-MB-435; 0.0393 µM (active) in the assay on Malme-3M; 0.5 µM (active) with OVCAR-5; 0.326 µM (active) with RPMI-8226; 0.0514 µM (active) with RXF 393; 22.4 µM (inactive) with SK-MEL-28. Besides, the GI50 is 0.341 µM (active) in the assay on SK-OV-3; 0.0792 µM (active) in the assay on SN12C; 0.0525 µM (active) in the assay with SNB-19; 0.0366 µM (active) in the assay on SR; 5.97 µM (inactive) in the assay on TK-10.
